Test results taken from patent US10004786B2 (Zealand Pharma A/S, priority 2009, dated 2018).
Numbered stars: 1 amine (or outer) side, 2 acyl side, 3 side chain; on linkers, the order of the positions; unused ones are H or OH. Square brackets hold non-standard residues; d marks the D form. Side chains are listed from the residue outwards. Peptide text beside a SMILES is read from it. * marks the point of attachment. γGlu = O=C(O)[C@H](CCC(=O)[*:2])N[*:1]; Palmitoyl = CCCCCCCCCCCCCCCC(=O)*; Aib = CC(C)(N)C(=O)O

Assays:
[1] = biological target: T1, human GLP-1R (Homo sapiens, UniProt P43220); assay: GLP-1 receptor efficacy assay (cAMP formation in HEK293 cells expressing human GLP-1R); type: cell-based; conditions: Table 1a, HEK293 cells expressing hGLP-1R
T1 construct: expressed in transfected cells
Protocol: (§1) The 5′-end primers additionally encoded a near Kozak consensus sequence to ensure efficient translation.
(§2) 48 hr after transfection cells were seeded for limited dilution cloning and selected with 1 mg/ml G418 in the culture medium.
(§3) On the day of analysis, growth medium was removed and the cells washed once with 200 μl Tyrode buffer. […] The reaction was stopped by addition of 25 μl 0.5 M HCl and incubated on ice for 60 min. The cAMP content was estimated using the FlashPlate® cAMP kit from Perkin-Elmer.
(§4) Efficacy of the GluGLP-1 agonists were estimated by exposing cells expressing hGlucagonR and hGLP-1R to the listed acylated compounds at increasing concentrations and measuring the formed cAMP as described in Methods.

[2] = biological target: T2, human Glucagon-R (Homo sapiens, UniProt P47871); assay: Glucagon receptor efficacy assay (cAMP formation in HEK293 cells expressing human Glucagon-R); type: cell-based; conditions: Table 1a, HEK293 cells expressing hGlucagonR, read-out: EC50 (nM) GluR
T2 construct: expressed in transfected cells
Protocol: as §1, §2, §3, §4

T1 sequence (P43220 24-463): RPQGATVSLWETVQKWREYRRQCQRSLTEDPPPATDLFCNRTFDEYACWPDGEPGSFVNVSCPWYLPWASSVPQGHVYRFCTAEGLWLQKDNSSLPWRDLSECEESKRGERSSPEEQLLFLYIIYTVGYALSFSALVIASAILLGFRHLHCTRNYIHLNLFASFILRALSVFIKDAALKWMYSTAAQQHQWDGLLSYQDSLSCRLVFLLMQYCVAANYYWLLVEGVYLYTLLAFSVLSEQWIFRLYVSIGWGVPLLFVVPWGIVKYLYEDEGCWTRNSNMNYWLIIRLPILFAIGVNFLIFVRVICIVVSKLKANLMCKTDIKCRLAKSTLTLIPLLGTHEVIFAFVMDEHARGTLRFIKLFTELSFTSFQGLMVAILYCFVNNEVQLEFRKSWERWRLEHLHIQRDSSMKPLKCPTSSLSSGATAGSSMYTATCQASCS
T2 sequence (P47871 26-477): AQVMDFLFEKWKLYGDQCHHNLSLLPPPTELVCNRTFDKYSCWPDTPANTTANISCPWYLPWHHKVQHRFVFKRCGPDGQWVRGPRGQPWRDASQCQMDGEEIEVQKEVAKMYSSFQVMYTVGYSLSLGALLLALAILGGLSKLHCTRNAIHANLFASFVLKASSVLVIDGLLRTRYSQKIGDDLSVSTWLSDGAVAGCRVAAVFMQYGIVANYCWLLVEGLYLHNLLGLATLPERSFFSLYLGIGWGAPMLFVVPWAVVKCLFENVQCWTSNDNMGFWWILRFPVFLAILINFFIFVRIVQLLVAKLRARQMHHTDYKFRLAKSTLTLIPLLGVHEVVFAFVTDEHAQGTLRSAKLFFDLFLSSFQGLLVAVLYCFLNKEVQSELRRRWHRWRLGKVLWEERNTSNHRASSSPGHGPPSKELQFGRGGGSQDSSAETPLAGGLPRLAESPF

`CCCCCCCCCCCCCCCC(=O)NCCCC[C@H](NC(=O)[C@H](CO)NC(=O)[C@H](CC(=O)O)NC(=O)[C@H](CC(C)C)NC(=O)[C@H](Cc1ccc(O)cc1)NC(=O)[C@H](CCCCN)NC(=O)[C@H](CO)NC(=O)[C@H](Cc1ccc(O)cc1)NC(=O)[C@H](CC(=O)O)NC(=O)[C@H](CO)NC(=O)[C@@H](NC(=O)[C@H](Cc1ccccc1)NC(=O)[C@@H](NC(=O)CNC(=O)[C@H](CCC(N)=O)NC(=O)C(C)(C)NC(=O)[C@@H](N)Cc1c[nH]cn1)[C@@H](C)O)[C@@H](C)O)C(=O)N[C@@H](C)C(=O)N[C@@H](C)C(=O)N[C@@H](Cc1c[nH]cn1)C(=O)N[C@@H](CC(=O)O)C(=O)N[C@@H](Cc1ccccc1)C(=O)N[C@H](C(=O)N[C@@H](CCC(=O)O)C(=O)N[C@@H](Cc1c[nH]c2ccccc12)C(=O)N[C@@H](CC(C)C)C(=O)N[C@@H](CC(C)C)C(=O)N[C@@H](CO)C(=O)N[C@@H](C)C(N)=O)C(C)C` [Compound 23] was tested. Which EC50 [1] did it give?
Its EC50 is 0.14 nM.

For `CCCCCCCCCCCCCCCC(=O)N[C@@H](CCC(=O)NCCCC[C@H](NC(=O)[C@H](CCC(=O)O)NC(=O)[C@H](CC(=O)O)NC(=O)[C@H](CC(C)C)NC(=O)[C@H](Cc1ccc(O)cc1)NC(=O)[C@H](CCCCN)NC(=O)[C@H](CO)NC(=O)[C@H](Cc1ccc(O)cc1)NC(=O)[C@H](CC(=O)O)NC(=O)[C@H](CO)NC(=O)[C@@H](NC(=O)[C@H](Cc1ccccc1)NC(=O)[C@@H](NC(=O)CNC(=O)[C@H](CCC(N)=O)NC(=O)C(C)(C)NC(=O)[C@@H](N)Cc1c[nH]cn1)[C@@H](C)O)[C@@H](C)O)C(=O)N[C@@H](C)C(=O)N[C@@H](C)C(=O)N[C@@H](Cc1c[nH]cn1)C(=O)N[C@@H](CC(=O)O)C(=O)N[C@@H](Cc1ccccc1)C(=O)N[C@H](C(=O)N[C@@H](CCC(=O)O)C(=O)N[C@@H](Cc1c[nH]c2ccccc12)C(=O)N[C@@H](CC(C)C)C(=O)N[C@@H](CC(C)C)C(=O)N[C@@H](CO)C(=O)N[C@@H](C)C(N)=O)C(C)C)C(=O)O` [Compound 40] (H-H[Aib]QGTFTSDYSKYLDEK([γGlu-Palmitoyl])AAHDFVEWLLSA-NH2), which EC50 [2] is on record?
The EC50 was 0.18 nM.

What about the EC50 [1] of the same compound?
The EC50 was 0.2 nM.
